“Also recorded” adds a separate entry of the source. Marks after values point to notes of the source that are not given here.
Key:
Type in all cases: in vivo
[1] = system: C57BL/6 mice with UUO surgical ligation; assay: Example 1: UUO mice, renal fibrosis evaluation (Sirius Red histology score); conditions: Bemithyl 200, Emoxypine 160, Suplatast Tosylate 60, Udenafil 40, Telmisartan 5 mg/kg PO QD
[2] = system: C57BL/6 mice with UUO surgical ligation; assay: Example 1: UUO mice, renal function evaluation (plasma BUN, creatinine); conditions: Example 1 text and conclusions; Bemithyl 200, Repirinast 30, Bromantane 20, Telmisartan 5 mg/kg PO QD
In short: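 Male C57BL/6 mice (9-12 weeks, 23-25 g) had the left ureter ligated at two points (sham controls unligated), then received once-daily oral compound or 0.5% CMC vehicle for 14 days; doses scaled from maximum human daily dose ×12. Sacrifice on day 15; plasma urea nitrogen and creatinine measured, BUN averaged per group (n = 8).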

[3] = system: C57BL/6 mice with UUO surgical ligation; assay: Example 2: UUO mice, renal fibrosis evaluation (Sirius Red histology score)
Protocol: (§1) In this example, healthy young female C57BL/6 mice were used for the study. At the commencement of the study, mice were between 9-12 weeks of age, weighing 23-25 g. All the mice were obtained from Charles River Laboratories.
(§2) The mice were maintained in a controlled environment with a temp 70-72° F., humidity 30-70%, with a photo cycle of 12 hours of light and 12 hours of dark. They were provided with Harlan Teklad 2018 standard maintenance mouse chow diet and drinking water ad libitium.
(§3) After five days of acclimatization, the mice were grouped according to their body weight. There were ten groups of ten mice each. Nine groups of ten mice each underwent UUO as described above and the other group of ten mice underwent a sham procedure to serve as a no-surgery control.
(§4) Following surgery, the mice were divided into 10 individual study groups of 10 mice each and, following post-surgical recovery, administered a once-daily oral treatment for 14 days. The mice in 8 of the 10 study groups had all received the UUO surgical ligation and were treated individually with a distinct pharmacologic compound as set out in Table 6. The mice in 2 of the 10 study groups were treated individually with a pharmaceutically acceptable vehicle with no active ingredient. The pharmaceutically acceptable vehicle in all groups was 0.5% carboxymethyl cellulose (CMC). All mice were sacrificed with CO2 on post-surgical day 15.
(§5) The dose selected for the animal studies was determined by taking the maximum known human daily dose, dividing by the average weight of an adult (˜60-70 kg) to get a human mg/kg dose. That number was multiplied by 12 to convert to a mouse dose based on conventional dosing tables. See Nair and Jacob, J Basic Clin Pharm March 2016-May 2016, 7(2):27-31.
Histopathology: Formalin-fixed kidney cross-section samples were subjected histopathological scoring with Sirius Red staining, and imaged at a magnification of ×20, using standard techniques. All three sections were stained and evaluated. The analysis was performed by a board-certified veterinarian pathologist. The presence of interstitial damage and severity score was assessed according to the following criteria: 0=normal; 1=light; 2=moderate; 3=severe.
(§6) The data are presented as the mean obtained from Microsoft Excel or GraphPad Prism version 5.00 for Windows (GraphPad Software, San Diego California USA). Data were analyzed using two-way ANOVA using Bonferroni and Tamhane post-tests. Differences between groups were considered significant at p<0.05.
Renal Fibrosis Evaluation: Renal fibrosis and interstitial damage was evaluated by histochemical staining of renal cross-sections with Sirius Red as previously described. The Histology Score of each study group consisted of the histology score average of all mice in each study group.

[4] = system: C57BL/6 mice with UUO surgical ligation; assay: Example 2: UUO mice, renal function evaluation (plasma BUN, creatinine)
Protocol: as §1, §2, §3, §4, §5
Serum collection: A blood sample was then collected from all mice and plasma analyzed for urea nitrogen and creatinine. Plasma was stored at −80° C. for possible future analysis.
as §6
Renal Function Evaluation: Renal function and disease progression was evaluated by BUN (blood urea nitrogen) as previously described. The BUN of each study group consisted of the BUN average of all mice in each study group.

[5] = Example 2, mg/kg PO QD: Telmisartan 3, Bemithyl 200, Repirinast 30, Telmisartan+Bemithyl 3+200, Telmisartan+Repirinast 3+30, Cenicriviroc 40, Bromantane 40

CCCc1nc2c(C)cc(-c3nc4ccccc4n3C)cc2n1Cc1ccc(-c2ccccc2C(=O)O)cc1 [Telmisartan, 2-(4-{[4-Methyl-6-(1-methyl-1H-1,3-benzodiazol-2-yl)-2-propyl-1H-1,3-benzodiazol-1-yl]methyl}phenyl)benzoic acid]
Kidney fibrosis / Histology Score, significance and comparison in words [1]: significant reduction; also recorded: reduction in BUN levels and fibrosis
Reduction in BUN compared to vehicle, in words, post-test not stated [2]: did not show a significant reduction; also recorded: the former was not statistically significant
Level of kidney fibrosis / histology score compared to vehicle or other agents, in words [3, 5]: statistically insignificant improvements; also recorded: did not show significant reductions
Histology Score ([3]; Sirius Red, 0=normal, 1=light, 2=moderate, 3=severe, group mean, UUO, female C57BL/6 mice, PO QD days 1-14, mg/kg: Telmisartan 3, Bemithyl 200, Repirinast 30, Telmisartan+Bemithyl 3+200, Telmisartan+Repirinast 3+30, Cenicriviroc 40, Bromantane 40): 1.62*#
Reduction of fibrosis (%) (versus vehicle) ([3]; from histology score, UUO, female C57BL/6 mice, PO QD days 1-14, mg/kg: Telmisartan 3, Bemithyl 200, Repirinast 30, Telmisartan+Bemithyl 3+200, Telmisartan+Repirinast 3+30, Cenicriviroc 40, Bromantane 40): 33%
Level of BUN compared to vehicle or other agents, in words [4, 5]: did not reduce levels of BUN; also recorded: did not show significant reductions
BUN ([4]; plasma at sacrifice day 15, group mean, * significant vs vehicle Bonferroni, # Tamhane (p<0.05), UUO, female C57BL/6 mice, PO QD days 1-14, mg/kg: Telmisartan 3, Bemithyl 200, Repirinast 30, Telmisartan+Bemithyl 3+200, Telmisartan+Repirinast 3+30, Cenicriviroc 40, Bromantane 40): 23.5 mg/dL
Creatinine ([4]; plasma at sacrifice day 15, group mean, UUO, female C57BL/6 mice, PO QD days 1-14, mg/kg: Telmisartan 3, Bemithyl 200, Repirinast 30, Telmisartan+Bemithyl 3+200, Telmisartan+Repirinast 3+30, Cenicriviroc 40, Bromantane 40): 0.20 mg/dL

From patent US12280026B2, “Use of repirinast in the prophylaxis or treatment of renal fibrosis or kidney disease” (ALGERNON PHARMACEUTICALS INC., priority 2018, dated 2025)
